{"source": "paper PMC5554220", "about": "“A Novel Aldosterone Antagonist Limits Renal Injury in 5/6 Nephrectomy” (Scientific Reports, 2017)", "target": "T1, human mineralocorticoid receptor (hMR) (Homo sapiens, UniProt P08235)", "T1 construct": "made in house; host or cells: Sf9 insect cells (baculovirus)", "T1 sequence (P08235 1-984)": "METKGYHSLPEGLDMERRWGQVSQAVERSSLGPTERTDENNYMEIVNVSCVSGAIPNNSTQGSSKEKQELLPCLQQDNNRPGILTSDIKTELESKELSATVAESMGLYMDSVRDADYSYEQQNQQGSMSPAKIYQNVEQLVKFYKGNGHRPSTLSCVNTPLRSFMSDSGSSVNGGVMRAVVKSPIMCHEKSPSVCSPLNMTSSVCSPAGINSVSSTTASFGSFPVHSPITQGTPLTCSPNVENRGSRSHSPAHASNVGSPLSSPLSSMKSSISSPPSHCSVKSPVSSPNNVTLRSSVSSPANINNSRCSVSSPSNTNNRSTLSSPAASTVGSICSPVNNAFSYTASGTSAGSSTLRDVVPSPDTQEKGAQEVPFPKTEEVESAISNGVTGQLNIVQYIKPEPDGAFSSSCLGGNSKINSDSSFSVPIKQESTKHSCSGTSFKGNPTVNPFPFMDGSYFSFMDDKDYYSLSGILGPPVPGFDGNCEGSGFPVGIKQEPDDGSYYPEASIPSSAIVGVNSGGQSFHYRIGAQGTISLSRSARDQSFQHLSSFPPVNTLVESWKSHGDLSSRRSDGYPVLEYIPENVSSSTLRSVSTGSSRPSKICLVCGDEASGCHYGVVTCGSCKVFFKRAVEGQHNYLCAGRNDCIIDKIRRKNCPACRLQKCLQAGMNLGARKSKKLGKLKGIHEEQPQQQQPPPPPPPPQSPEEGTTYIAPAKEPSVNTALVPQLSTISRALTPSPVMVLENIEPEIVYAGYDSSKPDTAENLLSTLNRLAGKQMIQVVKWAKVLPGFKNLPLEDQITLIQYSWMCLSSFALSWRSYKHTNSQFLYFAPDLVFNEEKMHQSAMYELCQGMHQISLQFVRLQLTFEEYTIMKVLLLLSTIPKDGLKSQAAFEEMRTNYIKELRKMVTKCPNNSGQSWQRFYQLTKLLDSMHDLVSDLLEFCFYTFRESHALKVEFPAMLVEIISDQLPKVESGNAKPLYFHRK", "assay": "Radioligand binding, [3H]aldosterone, hMR Sf9 lysate, vacuum filtration", "procedure": "Full-length human mineralocorticoid receptor (hMR) to be used in radioligand binding was isolated from a human kidney cDNA library (Clontech, Palo Alto, CA). […] The hMR, hPR, and hAR cDNAs were subcloned in the eukaryotic expression vector pcDNA3. Methods for the expression of functionally active hMR, hAR and hPR utilizing the baculovirus expression system were described previously, [31].\nAffinity of ligands to the soluble receptor was determined using vacuum filtration methods, preparing soluble receptors in 96-well Falcon polystyrene plates (BD Biosciences, Bedford, MA) in a total volume of 250 μl. […] Binding studies for ligands for hPR and hAR were determined using [1,2,6,7-3H(N)] […] Specific binding of 3H-progesterone for hPR and 3H-mibolerone for hAR was determined in the presence and absence of 1 μM mifepristone. Inhibition constants (Ki), were determined either from the Cheng-Prusoff equation[32], or directly using non-linear regression curve fitting to a three-parameter one-site competitive equation. […] Protein was measured using colorimetric detection and quantification of bicinchoninic acid (BCA Protein Assay, Pierce, Rockford, IL). […] Concentration response curves were analyzed statistically using a four-parameter logistic equation (Hill equation for sigmoid curves). […]"}
{"smiles": "O=c1[nH]c2ccc(/C=C3\\c4ccc(F)cc4COc4cc(F)ccc43)cc2[nH]1", "note": "[Ly]", "values": [{"measurement": "Ki", "setting": "hMR expressed in Sf9, [3H]aldosterone 0.5 nM, read-out: Mean Ki ± SEM hMR", "result": "1.6 ± 0.3", "unit": "nM"}, {"measurement": "Eple/Ly Ki ratio", "setting": "hMR, 124/1.6", "result": 77.5}]}
